Data taken from patent US10765621B2, “Extracts of halimione portulacoides and their application” (Cutech Srl, priority 2013, dated 2020).

What was measured:
[1] = tested on: IL-1α; assay: IL-1α release by ex-vivo human skin stimulated with 2% SDS (ELISA); format: cell-based
Description: In order to study the biological activity of the extracts from Halimione on the inflammatory response of skin to irritation, the experimental protocol summarized below was adopted: Ex-vivo skin samples (7 mm in diameter) were cultivated for 24 hours in 6-well plates (4 skin samples/well) with 2.5 ml/well of modified Williams E medium.
After 24 hours of culture the culture medium was renewed and the skin samples 2 to 6 received the irritant stimulus (2% SDS) through topical application of 4 μl of preparation on each skin sample. After 3 hours the stimulus was removed by means of cotton buds and then 4 μl of extract or dexamethasone were topically administered to the groups 3 to 6. Stimulus and lenitive treatments were diluted in 50% DMSO.
After a further 24 hours of cultivation, the culture media were separately collected from each group and the released IL-1α quantified via ELISA (BioLegend ELISAMAX cat. n. 434905).
Table 14 reports the average values of IL-1α obtained from the two medium samples (4 skin samples/well) collected for each experimental group.

[2] = tested on: hair follicles; conditions: usual response, indicative; cited from earlier work

C[C@@H]1C[C@H]2[C@@H]3CCC4=CC(=O)C=C[C@]4(C)[C@@]3(F)[C@@H](O)C[C@]2(C)[C@@]1(O)C(=O)CO [Dexam., dexamethasone]
IL-1α released in culture medium ([1]; 2% SDS stimulus, then lenitive treatment 10 mM (positive control), 24 h): 9.9 pg/mL

CCCCCCCCCCCCOS(=O)(=O)[O-].[Na+] [SDS]
IL-1α released in culture medium ([1]; 2% SDS stimulus without lenitive treatment (negative control), unstimulated control 1.3): 14.8 pg/mL

insulin
Hair follicle growth increment produced by well-known stimulants / positive controls [2]: 10%
